Experimental data published in US20080188493A1 (priority 2005, published 2008).

Columns and labels:
Pyrenophora teres = assay: Activity against net blotch of barley caused by Pyrenophora teres, 1 day protective application (comparative test); format: in vivo; settings: potted barley seedlings, sprayed 24 h before inoculation; visual % infection of entire leaf area after 6 days; concentration not given; untreated 90%
Procedure: The active compounds were prepared as a stock solution comprising 25 mg of active compound which was made up to 10 ml using a mixture of acetone and/or DMSO and the emulsifier Uniperol® EL (wetting agent having emulsifying and dispersing action based on ethoxylated alkylphenols) in a volume ratio of solvent/emulsifier of 99/1. The mixture was then made up to 100 ml with water. This stock solution was diluted with the solvent/emulsifier/water mixture described to the concentration of active compound stated below.
Comparative test—Activity against net blotch of barley caused by Pyrenophora teres, 1 day protective application
Leaves of potted barley seedlings were sprayed to runoff point with an aqueous suspension having the concentration of active compound stated below. 24 hours after the spray coating had dried on, the test plants were inoculated with an aqueous spore suspension of Pyrenophora [syn. Drechslera] teres, the net blotch pathogen. The test plants were then placed in a greenhouse at temperatures between 20 and 24° C. and 95 to 100% relative atmospheric humidity. After 6 days, the extent of the development of the disease was determined visually in % infection of the entire leaf area.

With `C=CCCCCc1c(C)nc2cc(C)nn2c1N` [I-1] the Infection in % (Pyrenophora teres) was 40% and the melting point was 178 to 179 °C.
`CCCCCCc1c(C)nc2cc(C)nn2c1N` [compound 30, reference compound] gave an Infection in % (Pyrenophora teres) of 90%.
